# Experimental data reported in publication PMC9332833 (Cancers, 2022).
# Key:
# [1] = system: CD34+ cells from CML patients; assay: Annexin V apoptosis assay, CML CD34+ cells; type: cell-based; conditions: Homo sapiens, 24 h
# Protocol: Blood samples were taken (venipuncture, EDTA-K2 Vacutainer tubes, Becton Dickinson, Franklin Lakes, NJ, USA) from 8 chronic phase CML patients (CML1–CML8; 4 men and 4 women, aged 39–79) diagnosed at the Department of Hematology, University Clinical Center, Medical University of Warsaw, following their written consent. The diagnosis was carried out by qualified clinical staff based on an interview, blood parameters and molecular tests detecting BCR-ABL1 (transcript b3a2). Peripheral blood mononuclear cells were immediately isolated from the fresh blood sample using standard protocol (Supplementary Methods). […]
# Cells were seeded in 6-well plates (K562 or K562-MDR1) or in 24-well plates (CD34^+ cells). […] After a further 24 h, cells were stained using the Annexin V-FITC kit for the detection of apoptosis (BD, Franklin Lakes, NJ, USA) and immediately analyzed on a BD FACSCalibur using CellQuest software (BD, Franklin Lakes, NJ, USA). […]
# (§1) incubated overnight at 37 °C and analyzed using an iMark Microp late absorbance reader (Bio-Rad, Hercules, CA, USA). Results were calculated relative to control cells treated with DMSO only.
# […] Stained cells were immediately analyzed on a BD FACSCalibur using CellQuest softwa re (BD, Franklin Lakes, NJ, USA). […]
# K562 cells [2] = assay: Annexin V-FITC/PI apoptosis measurement, K562; type: cell-based, human; conditions: 5 µM, 24 h
# Protocol: Cells were seeded in 6-well plates (K562 or K562-MDR1) or in 24-well plates (CD34^+ cells). After 24 h, BK124.1 or DMSO was added. After a further 24 h, cells were stained using the Annexin V-FITC kit for the detection of apoptosis (BD, Franklin Lakes, NJ, USA) and immediately analyzed on a BD FACSCalibur using CellQuest software (BD, Franklin Lakes, NJ, USA). […]
# as §1
# […] CD34+ cells were plated at a concentration of 2.5 × 10^5 cells/mL in a 24-well plate. […] A f t e r a further 24 hours, cells were harvested and stained according to the manufacturer's protocol using the Annexin V-FITC kit for the detection of apoptosis (BD, Franklin Lakes, NJ, USA). Stained cells were immediately analyzed on a BD FACSCalibur using CellQuest softwa re (BD, Franklin Lakes, NJ, USA).
# Cells were seeded at a concentration of 1-2 × 10^5 cells/mL in a 6-well plate. After 24 hours of pre-incubation, BK124.1 in DMSO was added to the cells (vDMSO/vmedium), and incubated for 24 or 48 hours.
# After incubation, cells were washed twice with ice-cold PBS (Mg2+ and Ca2+-free), resuspended in ice-cold 70% ethanol, and placed at -20 °C for 24 hours. […]
# Flow cytometry analysis of CD243 (P-glycoprotein) […]
# K562 cells [3] = assay: MTT viability test, K562; type: cell-based; conditions: Homo sapiens, K562; MTT, 48 h
# Protocol: CML cell line K562 CCL-243™ (BCR-ABL^+) was purchased from the ATCC® (Manassas, VA, USA). Cells were grown in RPMI 1640 medium containing HEPES (Biowest, Nuaillé, France) with 2 mM GlutaMAX (Gibco, Grand Island, NY, USA), supplemented with 10% fetal bovine serum (Sigma-Aldrich, St. Louis, MO, USA) and […] (Gibco, Grand Island, NY, USA) and 0.1 µM Vincristine (for K562-MDR1).
# (§2) Cells were seeded in 96-well plates; after 24 h, medium with the appropriate drug concentration was added to each well. After 48 h, Tetrazolium Bromide (Sigma-Aldrich, St. Louis, MO, USA) was added to each well for 2–3 h. After that, cells were lysed and formazan crystals were dissolved. Absorbance was read using an iMark Microplate absorbance reader (Bio-Rad, Hercules, CA, USA). Results were calculated relative to cells treated with DMSO only. […]
# (§3) Cells were seeded in 96-well plates at 7 × 10^3 cells/well in 50 µL of complete medium (for K562 or K562-MDR1) or at 50 × 10^3 cells/well in 50 µL of complete medium (CD34+ cells). After 24 hours, 50 µL of medium with the appropriate drug concentration was added to each well. The final DMSO concentration per well was 1% for K562 and K562-MDR1 and 0.1% for CD34+ cells. After 48 hours, 20 µL of Tetrazolium Bromide (Sigma-Aldrich, St. Louis, MO, USA) at a concentration of 5 mg/mL was added to each well. Cells were incubated for 2-3 hours in a cell culture incubator, and then 10% SDS with 1% HCl was added to each well to lyse the cells and dissolve the formazan crystals. Plates were […]
# [4] = Pharmacokinetics in Wistar rats; type: in vivo, Wistar rat
# Protocol: Five Wistar rats were injected intravenously (IV) with BK124.1 at 5 mg/kg or 10 mg/kg concentration, in 10% Solutol HS15/10% ethanol. The blood was taken from each animal after 5, 15, and 30 min, 1, 2, 6, and 24 h post-injection. Blood BK124.1 concentration was measured using mass spectrometry.
# K562-MDR1 cells = assay: MTT viability test, K562-MDR1; type: cell-based, human; conditions: Homo sapiens; MTT, 48 h
# Description: The K562-MDR1 cell line was developed using increasing concentrations of the commonly used antimitotic drug vincristine on a polyclonal K562 population, as described earlier. […] The DMSO concentration in the culture was 0.1%. The vincristine dose was doubled every 2–3 weeks (at least twice for each experiment) after the cells reached confluence. Cell’s viability was above 90%, as confirmed by Muse Cell Analyzer (Merck Millipore, Burlington, MA, USA). The final concentration of vincristine reached was 0.1 μM. The increase in the K562-MDR1 population was confirmed by flow cytometry and PCR.
# as §2, §3
smiles,measurement,setting,value
"CCC12C(=O)C(CC)(C(c3ccccc3)=C1c1ccccc1)C1C(=O)N(CC(O)CNC(C)C)C(=O)C12 (stereo not shown) [BK124.1, 4-[2-hydroxy-3-(propan-2-ylamino)propyl]-1,7-diethyl-8,9-diphenyl-4-azatricyclo [5.2.1.02,6]dec-8-ene-3,5,10-trione]",viability at […],[1]; 2.5 µM,10%
same,viability at 5 µM,[1]; 5 µM,5%
same,Apoptosis,K562 cells [2],61.2%
same,IC50,K562 cells [3],2500 nM
same,Time BK124.1 remains detectable in the peripheral blood,[4]; IV 10 mg/kg (Figure 1A),24 h
same,half-life,"[4]; Wistar, rat, IV 10 mg/kg, blood",4.39 h
same,IC50,K562-MDR1 cells,2160 nM
